# Test results from the NIST ThermoML archive (doi:10.1021/je100687x).
# ± gives the expanded uncertainty stated by the source.
# Assays:
# [1] = 101 kPa, Liquid; for electrical conductivity: Crison GLP 31+ conductivimeter
# [2] = xn = mol fraction of the nth substance listed; details: 101 kPa, Liquid; for electrical conductivity: Crison GLP 31+ conductivimeter
compound,measurement,setting,value
CCCCn1cc[n+](C)c1.F[B-](F)(F)F [1-butyl-3-methylimidazolium tetrafluoroborate],viscosity,[1]; 288.15 K,173.5 ± 23 mPa·s
same,viscosity,[1]; 298.15 K,99.2 ± 7.4 mPa·s
same,electrical conductivity,[1]; 298.15 K,0.352 ± 0.001 S/m
same,viscosity,[1]; 308.15 K,61.3 ± 1.8 mPa·s
same,viscosity,[1]; 318.15 K,40.4 ± 1.3 mPa·s
CCn1cc[n+](C)c1.F[B-](F)(F)F [1-ethyl-3-methylimidazolium tetrafluoroborate],viscosity,[1]; 288.15 K,55.5 ± 1.4 mPa·s
same,viscosity,[1]; 298.15 K,36.9 ± 1.2 mPa·s
same,electrical conductivity,[1]; 298.15 K,1.63 ± 0.001 S/m
same,viscosity,[1]; 308.15 K,26 ± 0.85 mPa·s
same,viscosity,[1]; 318.15 K,19.17 ± 0.63 mPa·s
CCn1cc[n+](C)c1.F[B-](F)(F)F [1-ethyl-3-methylimidazolium tetrafluoroborate] + CCO,viscosity,"[2]; 288.15 K, x2 = 0",55.5 ± 1.4 mPa·s
same,viscosity,"[2]; 288.15 K, x2 = 0.0946",34.76 ± 1.1 mPa·s
same,viscosity,"[2]; 288.15 K, x2 = 0.1928",25.25 ± 0.81 mPa·s
same,viscosity,"[2]; 288.15 K, x2 = 0.2757",20.25 ± 0.65 mPa·s
same,viscosity,"[2]; 288.15 K, x2 = 0.3116",18.17 ± 0.59 mPa·s
same,viscosity,"[2]; 288.15 K, x2 = 0.3913",13.68 ± 0.45 mPa·s
same,viscosity,"[2]; 288.15 K, x2 = 0.4553",12.47 ± 0.41 mPa·s
same,electrical conductivity,"[2]; 298.15 K, x2 = 0",1.63 ± 0.001 S/m
same,electrical conductivity,"[2]; 298.15 K, x2 = 0.028",1.718 ± 0.001 S/m
same,electrical conductivity,"[2]; 298.15 K, x2 = 0.057",1.843 ± 0.001 S/m
same,electrical conductivity,"[2]; 298.15 K, x2 = 0.0719",1.911 ± 0.001 S/m
same,electrical conductivity,"[2]; 298.15 K, x2 = 0.1034",2.061 ± 0.001 S/m
same,electrical conductivity,"[2]; 298.15 K, x2 = 0.1624",2.287 ± 0.001 S/m
same,electrical conductivity,"[2]; 298.15 K, x2 = 0.242",2.647 ± 0.001 S/m
same,electrical conductivity,"[2]; 298.15 K, x2 = 0.3165",2.982 ± 0.001 S/m
same,electrical conductivity,"[2]; 298.15 K, x2 = 0.3892",3.228 ± 0.001 S/m
same,electrical conductivity,"[2]; 298.15 K, x2 = 0.4085",3.278 ± 0.001 S/m
same,electrical conductivity,"[2]; 298.15 K, x2 = 0.4322",3.26 ± 0.001 S/m
same,electrical conductivity,"[2]; 298.15 K, x2 = 0.4511",3.47 ± 0.002 S/m
same,electrical conductivity,"[2]; 298.15 K, x2 = 0.4613",3.561 ± 0.002 S/m
same,viscosity,"[2]; 298.15 K, x2 = 0",36.9 ± 1.2 mPa·s
same,viscosity,"[2]; 298.15 K, x2 = 0.0946",24.46 ± 0.79 mPa·s
same,viscosity,"[2]; 298.15 K, x2 = 0.1928",18.33 ± 0.6 mPa·s
same,viscosity,"[2]; 298.15 K, x2 = 0.2757",14.92 ± 0.49 mPa·s
same,viscosity,"[2]; 298.15 K, x2 = 0.3116",13.47 ± 0.44 mPa·s
same,viscosity,"[2]; 298.15 K, x2 = 0.3913",10.3 ± 0.34 mPa·s
same,viscosity,"[2]; 298.15 K, x2 = 0.4553",8.445 ± 0.28 mPa·s
same,viscosity,"[2]; 308.15 K, x2 = 0",26 ± 0.85 mPa·s
same,viscosity,"[2]; 308.15 K, x2 = 0.0946",18.04 ± 0.59 mPa·s
same,viscosity,"[2]; 308.15 K, x2 = 0.1928",13.88 ± 0.46 mPa·s
same,viscosity,"[2]; 308.15 K, x2 = 0.2757",11.39 ± 0.38 mPa·s
same,viscosity,"[2]; 308.15 K, x2 = 0.3116",10.38 ± 0.34 mPa·s
same,viscosity,"[2]; 308.15 K, x2 = 0.3913",8.074 ± 0.27 mPa·s
same,viscosity,"[2]; 308.15 K, x2 = 0.4553",6.668 ± 0.23 mPa·s
same,viscosity,"[2]; 318.15 K, x2 = 0",19.17 ± 0.63 mPa·s
same,viscosity,"[2]; 318.15 K, x2 = 0.0946",13.79 ± 0.46 mPa·s
same,viscosity,"[2]; 318.15 K, x2 = 0.1928",10.84 ± 0.36 mPa·s
same,viscosity,"[2]; 318.15 K, x2 = 0.2757",8.958 ± 0.3 mPa·s
same,viscosity,"[2]; 318.15 K, x2 = 0.3116",8.238 ± 0.28 mPa·s
same,viscosity,"[2]; 318.15 K, x2 = 0.3913",6.494 ± 0.22 mPa·s
same,viscosity,"[2]; 318.15 K, x2 = 0.4553",5.408 ± 0.19 mPa·s
CCCCCCn1cc[n+](C)c1.F[B-](F)(F)F [1-hexyl-3-methylimidazolium tetrafluoroborate],viscosity,[1]; 288.15 K,357.5 ± 76 mPa·s
same,viscosity,[1]; 298.15 K,190.9 ± 28 mPa·s
same,electrical conductivity,[1]; 298.15 K,0.126 ± 0.001 S/m
same,viscosity,[1]; 308.15 K,110.3 ± 9.5 mPa·s
same,viscosity,[1]; 318.15 K,68.5 ± 2.6 mPa·s
CCCCCCCC[n+]1ccn(C)c1.F[B-](F)(F)F [1-methyl-3-octylimidazolium tetrafluoroborate],viscosity,[1]; 288.15 K,686 ± 190 mPa·s
same,viscosity,[1]; 298.15 K,337.4 ± 70 mPa·s
same,electrical conductivity,[1]; 298.15 K,0.069 ± 0.001 S/m
same,viscosity,[1]; 308.15 K,187.7 ± 27 mPa·s
same,viscosity,[1]; 318.15 K,112.1 ± 9.9 mPa·s
CCO [ethanol],viscosity,[1]; 288.15 K,1.296 ± 0.063 mPa·s
same,viscosity,[1]; 298.15 K,1.091 ± 0.058 mPa·s
same,electrical conductivity,[1]; 298.15 K,3e-05 ± 1e-05 S/m
same,viscosity,[1]; 308.15 K,0.9153 ± 0.054 mPa·s
same,viscosity,[1]; 318.15 K,0.7738 ± 0.05 mPa·s
CCO [ethanol] + CCCCCCCC[n+]1ccn(C)c1.F[B-](F)(F)F,electrical conductivity,"[2]; 298.15 K, x1 = 1",3e-05 ± 1e-05 S/m
CCO [ethanol] + CCn1cc[n+](C)c1.F[B-](F)(F)F,viscosity,"[2]; 288.15 K, x1 = 1",1.296 ± 0.063 mPa·s
same,viscosity,"[2]; 298.15 K, x1 = 1",1.091 ± 0.058 mPa·s
same,viscosity,"[2]; 308.15 K, x1 = 1",0.9153 ± 0.054 mPa·s
same,viscosity,"[2]; 318.15 K, x1 = 1",0.7738 ± 0.05 mPa·s
